Data as given in ChEMBL document CHEMBL1201862, “PubChem BioAssay data set” (2004).
The source made the active and inactive calls.

How the values were obtained:
[1] = target: Voltage-dependent T-type calcium channel subunit alpha-1H (Homo sapiens, UniProt O95180); type: functional;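 note: channel activity triggered by adding a high calcium stimulation buffer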
[2] = target: T1, Long-chain-fatty-acid--AMP ligase FadD28 (Mycobacterium tuberculosis, UniProt P9WQ59); assay: Fluorescence polarization aasay to screen for inhibitors that compete for the binding of FadD28 to a bisubstrate Measured in Biochemical System Using Plate Reader - 2147-01_Inhibitor_Dose_CherryPick_Activity.; type: functional, Mycobacterium tuberculosis H37Rv
T1 sequence (P9WQ59 whole entry): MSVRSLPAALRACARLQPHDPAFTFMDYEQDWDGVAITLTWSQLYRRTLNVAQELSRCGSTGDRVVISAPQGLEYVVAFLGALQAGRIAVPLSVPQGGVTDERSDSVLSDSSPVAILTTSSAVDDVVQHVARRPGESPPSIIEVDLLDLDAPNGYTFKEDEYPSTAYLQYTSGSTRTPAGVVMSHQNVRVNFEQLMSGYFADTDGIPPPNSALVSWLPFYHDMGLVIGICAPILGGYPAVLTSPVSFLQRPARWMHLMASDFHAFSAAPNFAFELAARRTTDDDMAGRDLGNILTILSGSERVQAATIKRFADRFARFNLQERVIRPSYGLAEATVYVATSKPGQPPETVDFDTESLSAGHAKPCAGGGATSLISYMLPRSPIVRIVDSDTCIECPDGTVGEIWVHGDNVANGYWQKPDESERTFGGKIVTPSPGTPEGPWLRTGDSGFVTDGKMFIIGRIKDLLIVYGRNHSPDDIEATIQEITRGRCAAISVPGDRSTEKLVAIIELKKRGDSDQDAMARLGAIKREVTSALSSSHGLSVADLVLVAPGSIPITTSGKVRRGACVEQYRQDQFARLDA

P388/ADR = assay: cells; type: functional; settings: Mus musculus
SN12K1 = assay: cells; type: functional; settings: Homo sapiens
P388 = assay: cells; type: functional; settings: Mus musculus
Estrogen receptor beta = Estrogen receptor beta (Homo sapiens, UniProt Q92731);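 note: recombinant ER-beta bound to coactivator SRC1 peptide in presence of estradiol agonist; inhibitors block coactivator peptide binding and lower the FRET signal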
Estrogen receptor beta, sequence (Q92731 whole entry): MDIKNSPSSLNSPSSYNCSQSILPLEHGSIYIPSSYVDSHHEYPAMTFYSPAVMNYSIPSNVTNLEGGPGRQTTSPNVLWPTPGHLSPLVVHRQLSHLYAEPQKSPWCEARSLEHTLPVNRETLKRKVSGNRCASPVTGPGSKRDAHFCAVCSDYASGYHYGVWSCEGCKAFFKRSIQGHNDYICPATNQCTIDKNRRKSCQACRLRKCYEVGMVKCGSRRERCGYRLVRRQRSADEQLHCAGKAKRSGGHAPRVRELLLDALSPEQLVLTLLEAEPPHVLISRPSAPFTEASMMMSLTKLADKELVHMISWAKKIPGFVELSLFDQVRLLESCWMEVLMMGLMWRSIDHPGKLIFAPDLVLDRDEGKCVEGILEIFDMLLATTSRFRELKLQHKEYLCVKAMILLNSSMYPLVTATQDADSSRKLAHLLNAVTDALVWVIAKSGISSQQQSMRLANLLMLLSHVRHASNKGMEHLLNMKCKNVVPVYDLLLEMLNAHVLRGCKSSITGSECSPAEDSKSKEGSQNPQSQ

SUMO-activating enzyme = SUMO-activating enzyme (Homo sapiens, UniProt Q9UBT2); assay: SUMOylation inhibitor hit validation, confirmation, SUMOylation inhibitor project, biochemical, AlphaScreen (AID 2018); type: functional
SUMO-activating enzyme, sequence (Q9UBE0 whole entry): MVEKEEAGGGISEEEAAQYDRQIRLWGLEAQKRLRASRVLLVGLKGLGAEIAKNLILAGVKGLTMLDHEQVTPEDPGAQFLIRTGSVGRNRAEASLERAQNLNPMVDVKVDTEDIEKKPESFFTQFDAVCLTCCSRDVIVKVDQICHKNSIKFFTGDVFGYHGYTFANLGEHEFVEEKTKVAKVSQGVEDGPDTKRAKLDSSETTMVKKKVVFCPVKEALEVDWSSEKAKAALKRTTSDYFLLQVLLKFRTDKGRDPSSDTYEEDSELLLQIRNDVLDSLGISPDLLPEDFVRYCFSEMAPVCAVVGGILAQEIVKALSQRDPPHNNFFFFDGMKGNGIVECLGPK
SUMO-activating enzyme, sequence (Q9UBT2 whole entry): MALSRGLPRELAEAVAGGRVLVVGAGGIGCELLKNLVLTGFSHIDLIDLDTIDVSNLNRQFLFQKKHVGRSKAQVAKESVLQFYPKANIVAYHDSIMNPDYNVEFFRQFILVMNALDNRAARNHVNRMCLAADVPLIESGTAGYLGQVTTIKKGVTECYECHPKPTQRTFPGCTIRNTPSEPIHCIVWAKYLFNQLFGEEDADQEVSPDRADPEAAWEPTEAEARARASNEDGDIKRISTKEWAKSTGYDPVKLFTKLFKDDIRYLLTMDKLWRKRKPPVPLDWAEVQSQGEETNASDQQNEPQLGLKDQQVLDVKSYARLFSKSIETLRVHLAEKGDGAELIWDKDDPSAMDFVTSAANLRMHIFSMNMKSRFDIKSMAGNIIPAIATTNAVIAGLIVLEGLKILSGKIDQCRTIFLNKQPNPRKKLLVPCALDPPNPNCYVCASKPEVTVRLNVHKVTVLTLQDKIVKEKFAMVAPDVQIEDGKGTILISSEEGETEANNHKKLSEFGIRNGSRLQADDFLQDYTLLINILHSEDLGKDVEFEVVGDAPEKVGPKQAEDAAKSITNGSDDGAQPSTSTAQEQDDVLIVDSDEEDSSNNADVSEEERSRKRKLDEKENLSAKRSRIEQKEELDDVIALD

[3] = target: T2, DNA repair protein RAD52 homolog (Homo sapiens, UniProt P43351); type: functional, biochemical
T2 sequence (P43351 whole entry): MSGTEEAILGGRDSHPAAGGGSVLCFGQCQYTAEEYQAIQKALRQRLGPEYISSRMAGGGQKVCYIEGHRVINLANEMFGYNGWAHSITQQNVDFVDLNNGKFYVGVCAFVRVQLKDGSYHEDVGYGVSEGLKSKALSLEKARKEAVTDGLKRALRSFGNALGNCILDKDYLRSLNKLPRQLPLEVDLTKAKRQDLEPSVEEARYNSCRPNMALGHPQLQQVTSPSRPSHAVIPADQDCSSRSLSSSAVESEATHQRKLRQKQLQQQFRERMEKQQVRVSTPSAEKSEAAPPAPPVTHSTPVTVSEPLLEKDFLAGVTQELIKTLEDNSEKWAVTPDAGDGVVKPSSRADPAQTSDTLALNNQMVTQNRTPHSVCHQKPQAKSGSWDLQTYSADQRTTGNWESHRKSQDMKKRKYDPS

[4] = target: T3, Histone-lysine N-methyltransferase NSD2 (Homo sapiens, UniProt O96028); type: biochemical
T3 sequence (O96028 whole entry): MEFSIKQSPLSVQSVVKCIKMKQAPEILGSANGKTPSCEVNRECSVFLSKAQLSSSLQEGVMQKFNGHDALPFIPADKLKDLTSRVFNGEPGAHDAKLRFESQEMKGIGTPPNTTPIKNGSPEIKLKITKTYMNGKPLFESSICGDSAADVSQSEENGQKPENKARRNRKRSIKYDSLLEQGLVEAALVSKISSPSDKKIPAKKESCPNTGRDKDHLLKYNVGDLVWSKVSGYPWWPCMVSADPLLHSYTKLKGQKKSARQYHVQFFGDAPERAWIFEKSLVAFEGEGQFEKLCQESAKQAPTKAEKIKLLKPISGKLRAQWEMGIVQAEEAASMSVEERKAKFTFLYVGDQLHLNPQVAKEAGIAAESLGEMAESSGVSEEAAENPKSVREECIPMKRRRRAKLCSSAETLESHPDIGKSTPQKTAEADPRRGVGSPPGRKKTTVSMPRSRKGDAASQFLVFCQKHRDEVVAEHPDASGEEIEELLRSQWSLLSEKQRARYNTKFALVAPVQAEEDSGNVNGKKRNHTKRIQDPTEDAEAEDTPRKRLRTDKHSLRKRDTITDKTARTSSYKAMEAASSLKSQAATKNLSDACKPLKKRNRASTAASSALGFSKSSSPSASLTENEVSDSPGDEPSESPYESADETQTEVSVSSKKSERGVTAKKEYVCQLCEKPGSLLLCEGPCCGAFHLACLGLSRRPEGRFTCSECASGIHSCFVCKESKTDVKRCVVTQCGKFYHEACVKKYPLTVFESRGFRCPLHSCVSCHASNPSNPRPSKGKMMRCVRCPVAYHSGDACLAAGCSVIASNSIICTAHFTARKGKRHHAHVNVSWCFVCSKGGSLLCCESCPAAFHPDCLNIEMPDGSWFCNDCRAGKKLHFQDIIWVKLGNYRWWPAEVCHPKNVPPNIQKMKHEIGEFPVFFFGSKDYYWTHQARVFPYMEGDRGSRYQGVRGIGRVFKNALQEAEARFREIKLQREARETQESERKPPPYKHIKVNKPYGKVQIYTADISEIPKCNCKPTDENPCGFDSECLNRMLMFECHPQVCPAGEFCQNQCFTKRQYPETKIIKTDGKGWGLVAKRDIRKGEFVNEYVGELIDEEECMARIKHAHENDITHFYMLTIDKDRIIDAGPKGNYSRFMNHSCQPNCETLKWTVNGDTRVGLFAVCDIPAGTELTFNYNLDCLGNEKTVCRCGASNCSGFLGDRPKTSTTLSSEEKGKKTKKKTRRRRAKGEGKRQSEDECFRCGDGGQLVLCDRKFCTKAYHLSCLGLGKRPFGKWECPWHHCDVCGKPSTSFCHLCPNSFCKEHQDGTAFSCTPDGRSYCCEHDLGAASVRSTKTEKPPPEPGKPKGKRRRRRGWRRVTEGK

[5] = target: FAD-linked sulfhydryl oxidase ALR (Homo sapiens, UniProt P55789); assay: inhibitors of human ALR sulfhydryl oxidase, dose response, biochemical, H2O2 detection, luminescence, cherry-pick (AID 493248)
FAD-linked sulfhydryl oxidase ALR, sequence (P55789 whole entry): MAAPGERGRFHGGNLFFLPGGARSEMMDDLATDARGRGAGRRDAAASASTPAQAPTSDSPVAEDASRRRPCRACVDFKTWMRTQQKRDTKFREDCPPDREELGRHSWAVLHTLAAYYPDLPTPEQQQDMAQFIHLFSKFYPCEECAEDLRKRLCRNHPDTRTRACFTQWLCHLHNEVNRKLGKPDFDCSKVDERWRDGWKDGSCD

[6] = target: Eukaryotic translation initiation factor 4E (Mus musculus, UniProt P63073); assay: eIF4E–eIF4G protein interaction inhibitors, dose response, biochemical, TR-FRET (AID 855); type: functional;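 note: potency for disrupting eIF4E binding to eIF4GI seen as loss of FRET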
Eukaryotic translation initiation factor 4E, sequence (P63073 whole entry): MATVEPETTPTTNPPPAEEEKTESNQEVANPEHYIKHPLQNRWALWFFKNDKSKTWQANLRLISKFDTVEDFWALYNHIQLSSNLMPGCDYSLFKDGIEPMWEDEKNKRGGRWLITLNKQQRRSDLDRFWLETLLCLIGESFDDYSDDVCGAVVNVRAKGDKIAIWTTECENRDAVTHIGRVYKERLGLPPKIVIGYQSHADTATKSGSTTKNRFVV

Vero [7] = assay: Vero cell cytotoxicity, cytotoxicity control for flavivirus capping enzyme inhibitors (AID 588742); type: functional; settings: Chlorocebus sabaeus
[8] = target: T4, Mannose-6-phosphate isomerase (Homo sapiens, UniProt P34949); assay: human PMI inhibitors, high substrate, primary screen, biochemical, fluorescence intensity, high mannose 6-phosphate (AID 1220)
T4 sequence (P34949 whole entry): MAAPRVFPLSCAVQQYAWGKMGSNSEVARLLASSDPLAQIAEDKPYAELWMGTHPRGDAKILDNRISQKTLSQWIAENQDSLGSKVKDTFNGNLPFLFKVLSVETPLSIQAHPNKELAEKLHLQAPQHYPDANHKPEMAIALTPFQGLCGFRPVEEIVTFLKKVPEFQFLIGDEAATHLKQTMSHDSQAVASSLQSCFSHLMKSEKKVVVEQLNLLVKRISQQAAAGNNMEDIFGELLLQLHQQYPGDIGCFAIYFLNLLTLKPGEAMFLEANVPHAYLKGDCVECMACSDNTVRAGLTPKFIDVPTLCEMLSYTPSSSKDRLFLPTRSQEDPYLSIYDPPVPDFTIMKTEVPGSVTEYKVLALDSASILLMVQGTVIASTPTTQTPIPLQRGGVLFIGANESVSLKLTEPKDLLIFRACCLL

[9] = target: T5, Short transient receptor potential channel 4 (Mus musculus, UniProt Q9QUQ5); assay: mouse TRPC4 channel activators, dose response, cell-based, HEK293 TRPC4/mu-opioid, Fluo-4 calcium (AID 434937); type: functional
T5 sequence (Q9QUQ5 whole entry): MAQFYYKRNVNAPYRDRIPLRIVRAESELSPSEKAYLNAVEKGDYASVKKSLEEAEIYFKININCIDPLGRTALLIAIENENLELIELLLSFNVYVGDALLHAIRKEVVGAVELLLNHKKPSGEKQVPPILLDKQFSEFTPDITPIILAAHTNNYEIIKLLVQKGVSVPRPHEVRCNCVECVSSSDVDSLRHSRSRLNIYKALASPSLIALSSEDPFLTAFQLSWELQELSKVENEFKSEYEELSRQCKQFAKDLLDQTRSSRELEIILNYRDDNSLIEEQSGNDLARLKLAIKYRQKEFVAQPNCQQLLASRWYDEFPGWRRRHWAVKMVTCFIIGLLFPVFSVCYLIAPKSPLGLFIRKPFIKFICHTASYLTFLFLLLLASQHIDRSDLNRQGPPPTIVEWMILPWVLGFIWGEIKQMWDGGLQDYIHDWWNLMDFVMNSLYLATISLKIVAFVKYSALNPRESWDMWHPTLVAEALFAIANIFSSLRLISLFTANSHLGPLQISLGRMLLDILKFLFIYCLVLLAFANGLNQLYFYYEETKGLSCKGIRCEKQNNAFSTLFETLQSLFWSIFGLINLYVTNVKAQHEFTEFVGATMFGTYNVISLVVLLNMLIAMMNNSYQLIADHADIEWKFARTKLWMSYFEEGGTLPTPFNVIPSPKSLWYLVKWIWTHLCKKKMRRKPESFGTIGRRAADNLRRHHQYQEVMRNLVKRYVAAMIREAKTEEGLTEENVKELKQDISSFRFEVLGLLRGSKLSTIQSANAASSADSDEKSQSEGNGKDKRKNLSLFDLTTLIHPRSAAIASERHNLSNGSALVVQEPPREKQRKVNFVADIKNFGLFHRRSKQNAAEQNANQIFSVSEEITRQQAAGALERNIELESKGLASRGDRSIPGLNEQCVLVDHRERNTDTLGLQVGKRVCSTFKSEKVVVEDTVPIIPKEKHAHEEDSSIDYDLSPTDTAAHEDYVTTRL

[10] = HEp-2 cell cytotoxicity, dose response, cytotoxicity control for RSV inhibitor project, HTS (AID 2410); type: functional; settings: human respiratory syncytial virus
Vero [11] = assay: cells; type: functional, cell-based; settings: Chlorocebus sabaeus
Vero [12] = assay: cells; type: functional; settings: Chlorocebus sabaeus

Voltage-dependent T-type calcium channel subunit alpha-1H, sequence (O95180 whole entry): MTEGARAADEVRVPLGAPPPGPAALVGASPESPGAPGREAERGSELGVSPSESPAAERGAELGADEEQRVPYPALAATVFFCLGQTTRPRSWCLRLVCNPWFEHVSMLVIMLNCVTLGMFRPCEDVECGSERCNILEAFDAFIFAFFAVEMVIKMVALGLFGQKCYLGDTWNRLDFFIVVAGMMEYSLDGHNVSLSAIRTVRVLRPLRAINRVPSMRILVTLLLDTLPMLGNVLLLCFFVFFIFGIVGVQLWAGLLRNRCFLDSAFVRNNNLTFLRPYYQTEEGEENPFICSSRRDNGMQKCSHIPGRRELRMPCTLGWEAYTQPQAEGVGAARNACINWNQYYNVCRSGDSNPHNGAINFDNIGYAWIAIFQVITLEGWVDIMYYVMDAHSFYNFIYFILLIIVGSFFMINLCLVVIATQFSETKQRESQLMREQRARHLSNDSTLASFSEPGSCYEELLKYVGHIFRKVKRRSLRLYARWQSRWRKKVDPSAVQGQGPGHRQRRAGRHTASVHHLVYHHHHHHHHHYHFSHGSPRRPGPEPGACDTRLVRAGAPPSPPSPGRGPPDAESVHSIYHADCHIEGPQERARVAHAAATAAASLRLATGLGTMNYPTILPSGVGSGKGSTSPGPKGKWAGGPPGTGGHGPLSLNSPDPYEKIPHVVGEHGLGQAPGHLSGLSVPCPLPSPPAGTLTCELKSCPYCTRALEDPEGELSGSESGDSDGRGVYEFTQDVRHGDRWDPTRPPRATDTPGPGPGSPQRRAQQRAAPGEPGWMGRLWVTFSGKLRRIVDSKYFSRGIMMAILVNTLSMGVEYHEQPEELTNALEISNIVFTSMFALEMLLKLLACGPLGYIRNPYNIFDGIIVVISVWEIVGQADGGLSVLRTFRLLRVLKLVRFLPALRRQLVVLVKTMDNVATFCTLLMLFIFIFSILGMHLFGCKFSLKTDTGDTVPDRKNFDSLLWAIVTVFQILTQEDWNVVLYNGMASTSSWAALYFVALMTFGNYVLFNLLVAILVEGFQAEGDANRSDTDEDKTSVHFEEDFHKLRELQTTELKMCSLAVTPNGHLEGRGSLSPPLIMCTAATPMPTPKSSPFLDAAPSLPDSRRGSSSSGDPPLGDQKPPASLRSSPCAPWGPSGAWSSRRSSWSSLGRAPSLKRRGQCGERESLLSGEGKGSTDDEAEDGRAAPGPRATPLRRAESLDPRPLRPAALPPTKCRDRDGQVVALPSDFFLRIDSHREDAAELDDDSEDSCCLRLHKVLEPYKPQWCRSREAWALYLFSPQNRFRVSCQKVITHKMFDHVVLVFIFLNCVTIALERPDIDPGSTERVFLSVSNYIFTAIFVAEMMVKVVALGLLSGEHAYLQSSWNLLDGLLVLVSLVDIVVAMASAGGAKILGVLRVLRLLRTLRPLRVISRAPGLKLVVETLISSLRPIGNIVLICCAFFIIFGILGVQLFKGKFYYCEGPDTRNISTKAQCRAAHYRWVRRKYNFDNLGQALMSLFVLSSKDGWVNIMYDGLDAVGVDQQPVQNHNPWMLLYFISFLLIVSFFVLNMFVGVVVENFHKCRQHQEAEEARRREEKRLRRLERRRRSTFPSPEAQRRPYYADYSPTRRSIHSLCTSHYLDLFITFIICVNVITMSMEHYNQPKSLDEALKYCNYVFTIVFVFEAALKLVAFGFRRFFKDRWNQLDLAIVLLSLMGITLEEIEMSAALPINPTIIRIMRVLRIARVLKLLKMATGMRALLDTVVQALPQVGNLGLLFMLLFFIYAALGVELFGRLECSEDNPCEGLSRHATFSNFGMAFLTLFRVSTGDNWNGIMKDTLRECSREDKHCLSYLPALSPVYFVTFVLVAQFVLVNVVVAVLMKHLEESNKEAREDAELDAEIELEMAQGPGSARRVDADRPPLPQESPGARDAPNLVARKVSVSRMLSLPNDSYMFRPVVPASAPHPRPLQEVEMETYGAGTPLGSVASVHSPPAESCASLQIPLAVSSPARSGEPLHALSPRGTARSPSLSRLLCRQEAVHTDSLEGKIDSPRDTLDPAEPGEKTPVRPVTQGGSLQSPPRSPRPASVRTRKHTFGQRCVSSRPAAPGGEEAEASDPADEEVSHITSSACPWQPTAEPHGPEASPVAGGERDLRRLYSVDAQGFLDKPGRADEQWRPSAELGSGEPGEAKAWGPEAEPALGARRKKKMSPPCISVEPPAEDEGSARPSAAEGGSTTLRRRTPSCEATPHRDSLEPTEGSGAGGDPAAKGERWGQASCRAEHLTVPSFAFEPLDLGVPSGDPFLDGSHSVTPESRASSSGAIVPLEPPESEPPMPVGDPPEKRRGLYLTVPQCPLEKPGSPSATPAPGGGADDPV

SMILES: O=C(CS(=O)(=O)Cc1ccccc1)Nc1ccc(S(=O)(=O)N2CCCCCC2)cc1
- EC50 [1]: 4.62 µM (active)
- AC50 [2]: 80.8 µM (active)

SMILES: CCCCCCc1cn([C@H]2C[C@H](O)[C@@H](CO)O2)c(=O)[nH]c1=O
- GI50 (P388/ADR): > 100 µM (inactive)
- GI50 (SN12K1): > 100 µM (inactive)
- GI50 (P388): > 100 µM (inactive)

SMILES: Cc1ccc(C(=O)Nc2nc(-c3cccnc3)cs2)o1
- IC50 (Estrogen receptor beta): 21.2 µM (active)

SMILES: CCOC(=O)/C=C/c1c[nH]c(=O)[nH]c1=O
- GI50 (P388/ADR): > 66.4 µM (inactive)
- GI50 (SN12K1): > 75 µM (inactive)
- GI50 (P388): > 75 µM (inactive)

SMILES: CC1CCCN(c2nc3ccccc3nc2C(C#N)S(=O)(=O)c2ccccc2)C1 (stereo not given)
- IC50 (SUMO-activating enzyme): 22.1 µM (active)

SMILES: Cc1cccc(S(=O)(=O)Nc2nc3ccccc3nc2Nc2cccc(C(=O)O)c2)c1
- AC50 [2]: 91.1 µM (active)

SMILES: CCOC(=O)CCC(NC(=O)c1ccc(NCN2C(=O)CCC2=O)cc1)C(=O)OCC (stereo not given)
- IC50 (Estrogen receptor beta): > 50 µM (not active)

SMILES: CCN(CC)CCN=C(S)Nc1ccc2nc(N3CCCC3)cc(C)c2c1
- AC50 [3]: 3.9 µM (active)
- AC50 [4]: > 20 µM (inactive)

SMILES: O=C(O)c1ccc2c(c1)C(=O)N(c1ccc(Nc3ccccc3)cc1)C2=O
- AC50 [5]: 25.8 µM (active)
- AC50 [2]: > 100 µM (inactive)

SMILES: O=S(=O)(NCCc1ccc(F)cc1)c1cccc2cccnc12
- IC50 [6]: 50 µM (inactive)

SMILES: O=C(OCC1CC(c2ccccn2)=NO1)c1ccc(Br)cc1 (stereo not given)
- IC50 [6]: > 64 µM (inactive)

SMILES: CCc1cccc(NC(=O)CN2C(=O)NC3(CCCCCCC3)C2=O)c1
- AC50 [2]: > 100 µM (inactive)

SMILES: Nc1ncnc2c1ncn2[C@@H]1O[C@H](CNCc2ccc(OCC(=O)Nc3ccccn3)cc2)[C@@H](O)[C@H]1O
- AC50 [2]: > 100 µM (inactive)

SMILES: O=C(Nc1ccc2c(c1)CCCN2C(=O)c1cccs1)c1ccccc1
- CC50 (Vero [7]): > 40 µM (active)

SMILES: COC(=O)C1=C(C(=O)OC)SC(=C2C(=S)C(C)(C)N(C(=O)C3CC3)c3ccccc32)S1
- IC50 [8]: 6.47 µM (active)

SMILES: CCCCN=C(S)Nc1ccc2nc(N3CCN(CC)CC3)cc(C)c2c1
- AC50 [3]: 25.9 µM (active)

SMILES: O=C(O)C1C2C=CC(C2)C1C(=O)NC1CCN(Cc2ccccc2)CC1 (stereo not given)
- EC50 [9]: 5.31 µM (active)

SMILES: Cc1cc(-c2nn(-c3ccccc3F)cc2CNCCc2c[nH]cn2)c(C)s1
- EC50 [9]: 0.0427 µM (active)

SMILES: O=C(NCc1ccco1)C1(S(=O)(=O)c2ccc(Cl)cc2)CC1
- IC50 (Estrogen receptor beta): > 50 µM (not active)

SMILES: N=C1/C(=C/c2cccn2Cc2ccc(Cl)cc2)C(=O)N=C2SC=CN12
- IC50 (SUMO-activating enzyme): 47.6 µM (active)

SMILES: O=C(CN1C(=O)NC2(CCCc3ccccc32)C1=O)c1ccc(Br)cc1 (stereo not given)
- AC50 [2]: > 100 µM (inactive)

SMILES: COc1ccc(C(c2sc3nc(C)nn3c2O)N2CCc3ccccc3C2)cc1 (stereo not given)
- IC50 [8]: 9.88 µM (active)

SMILES: O=C(c1cccn2c(=O)c3cc(Cl)ccc3nc12)N1CCN(Cc2ccc3c(c2)OCO3)CC1
- IC50 [6]: > 64 µM (inactive)

SMILES: CCN1CCCC1CNC(=O)c1cc2c(OC)cccc2[nH]1 (stereo not given)
- EC50 [9]: 6.68 µM (active)

SMILES: Cc1ccc2cc(C#N)c(NCCNC(S)=NCCCN(C)C)nc2c1C
- CC50 [10]: 13.2 µM (active)
- IC50 (Vero [11]): > 25 µM (active)
- CC50 (Vero [12]): 15.1 µM (active)
- AC50 [3]: 16.9 µM (active)
